Columns and labels:
[1] = tested on: CHO-K1 cells; experiment: Permeability of cell membrane to substrates (uptake and wash-out, fluorescence); assay type: cell-based; conditions: 100 μM, 60 minutes
Procedure: CHO-K1 Cells (ATCC-CCL61) were cultured in a 1:1 mixture of Ham's F12 nutrients and Dulbecco's modified minimal essential medium supplemented with 10% fetal bovine serum (FBS), 100 U/ml penicillin, and […] streptomycin, in an atmosphere of 95% air and 5% CO2 at 37° C.

[2] = tested on: CHO-K1 cells; experiment: Toxicity of Cl-alkanes, CellTiter-Glo Luminescence Cell Viability Assay; assay type: cell-based
Procedure: To study the toxicity of Cl-alkanes, CHO-K1 cells were plated in 96 well plates to a density of 5,000 cells per well. […] Viability of the cells was measured with CellTiter-Glo™ Luminescence Cell Viability Assay (Promega) according to the manufacturer's protocol. Generally, 100 μl of CellTiter-Glo™ reagent was added directly to the cells and the luminescence was recorded at 10 minutes using a DYNEX MLX microtiter plate luminometer.

[3] = target: DhaA.H272F (Rhodococcus rhodochrous, UniProt P0A3G2, H272F); assay type: binding; conditions: dose dependent, HRP conjugated streptavidin

## O=C(NCCOCCOCCCCCCCl)c1ccc(-c2c3ccc(=O)cc-3oc3cc(O)ccc23)c(C(=O)O)c1 [N-{2-[2-(6-Chlorohexyloxy)-ethoxy]-ethyl}-fluorescein-5-amide]
[1]
  crossing of the plasma membrane of CHO-K1 cells: did not cross the plasma membrane

## N-{2-[2-(6-Chlorohexyloxy)-ethoxy]-ethyl}-tetramethylrhodamine-5-(and -6)-amide
[2]; 4 hour treatment at 100 μM (highest concentration tested)
  toxicity on CHO-K1 cells: no toxicity

## O=C(CCCC[C@@H]1SC[C@@H]2NC(=O)N[C@@H]21)NCCOCCOCCCCCCCl [biotin-C10H21NO2—Cl, N-{2-[2-(6-Chlorohexyloxy)-ethoxy]ethyl}-biotin-amide]
[2]; 24 hours of treatment at 100 μM
  toxicity on CHO-K1 cells: No toxicity
[3]
  concentration at which binding could be detected: 0.2 µM

— patent US9416353B2, “Covalent tethering of functional groups to proteins and substrates therefor” (Promega Corporation, priority 2004, dated 2016)
